Strand notation (5' to 3'): a small letter for the sugar, then the base; units joined by * are phosphorothioate-linked, units joined directly phosphodiester-linked; [ ] holds rarer units or linkages, { } end groups; capitals alone tell only the bases. e = 2'-O-(2-methoxyethyl) (MOE); k = constrained ethyl (cEt); [5mC] = 5-methylcytosine; d = 2'-deoxy (DNA)
Tests used:
Format in all cases: cell-based
[1] = system: human PKK mRNA; experiment: Antisense inhibition of human PKK mRNA in HepaRG cells, 5,000 nM (Example 2); conditions: HepaRG cells, electroporation with 5,000 nM antisense oligonucleotide, approx. 24 hours, PKK mRNA by RT-PCR (RTS3454), relative to untreated control cells
Method in brief: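 qRT-PCR (RTS3454) read-out, RIBOGREEN-normalized; % inhibition vs untreated cells. HepaRG, 20,000 cells/well, electroporation, 5,000 nM ASO, ~24 h.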

[2] = system: human PKK mRNA; experiment: Dose-dependent antisense inhibition of human PKK in HepaRG cells, 0.19-5.00 uM (Example 5); conditions: HepaRG cells; for percent inhibition of PKK at 0.19 μM / percent inhibition of PKK at 0.56 μM / percent inhibition of PKK at 1.67 μM / percent inhibition of PKK at 5.00 μM: electroporation, approximately 16 hours; for IC50: 4 point dose response
Procedure: Cells were plated at a density of 20,000 cells per well and transfected using electroporation with 0.19 μM, 0.56 μM, 1.67 μM, and 5.00 μM concentrations of antisense oligonucleotide. After a treatment period of approximately 16 hours, RNA was isolated from the cells and PKK mRNA levels were measured by quantitative real-time PCR. Human PKK primer probe set RTS3454 was used to measure mRNA levels. PKK mRNA levels were adjusted according to total RNA content, as measured by RIBOGREEN®. The antisense oligonucleotides were tested in a series of experiments that had similar culture conditions.
The half maximal inhibitory concentration (IC50) of each oligonucleotide is also presented.

[3] = system: human PKK mRNA; experiment: Antisense inhibition of human PKK mRNA in HepaRG cells, 1,000 nM, MOE/deoxy/cEt oligonucleotides (Example 3)
Method in brief: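 Readout is percent PKK mRNA reduction against untreated controls, by real-time PCR (RTS3454) adjusted for total RNA via RIBOGREEN. Oligonucleotides, phosphorothioate gapmers of 16 nucleosides with cEt, MOE and deoxy sugars, were delivered at 1,000 nM by electroporation to 20,000 HepaRG cells/well for roughly 24 h.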

[4] = HepaRG cells, electroporation with 1,000 nM antisense oligonucleotide, approximately 24 hours, primer probe set RTS3454, relative to untreated control cells, experiment of Table 24
[5] = Table 20, HepaRG cells, electroporation with 1,000 nM antisense oligonucleotide, approximately 24 hours, PKK mRNA by RT-PCR (RTS3454), relative to untreated control cells
[6] = Table 22 experiment, HepaRG cells, electroporation with 1,000 nM antisense oligonucleotide, approx. 24 hours, PKK mRNA by RT-PCR (RTS3454), relative to untreated control cells
[7] = HepaRG cells, 1,000 nM antisense oligonucleotide, Table 29
[8] = HepaRG cells, electroporation with 1,000 nM antisense oligonucleotide, approximately 24 hours, primer probe set RTS3454, relative to untreated control cells, experiment of Table 23
[9] = Table 19, HepaRG cells, electroporation with 1,000 nM antisense oligonucleotide, approximately 24 hours, PKK mRNA by RT-PCR (RTS3454), relative to untreated control cells
[10] = Table 27, HepaRG cells, 1,000 nM antisense oligonucleotide, human PKK mRNA
[11] = Table 28, HepaRG cells, 1,000 nM antisense oligonucleotide, human PKK mRNA
[12] = Table 21 experiment, HepaRG cells, electroporation with 1,000 nM antisense oligonucleotide, approx. 24 hours, PKK mRNA by RT-PCR (RTS3454), relative to untreated control cells
[13] = HepaRG cells, electroporation with 1,000 nM antisense oligonucleotide, approx. 24 hours, PKK mRNA by RT-PCR (RTS3454), relative to untreated control cells, Table 25 experiment

547368 (eG*e[5mC]*eA*eT*e[5mC]*dT*dG*dG*dA*dG*dT*dG*dA*dG*dA*eA*e[5mC]*e[5mC]*e[5mC]*eT; antisense) [compound 547368]
% inhibition ([1]; Table 7): 89%
percent inhibition of PKK at 0.19 μM ([2]; Table 37): 0%
percent inhibition of PKK at 0.56 μM ([2]; Table 37): 0%
percent inhibition of PKK at 1.67 μM ([2]; Table 37): 31%
percent inhibition of PKK at 5.00 μM ([2]; Table 37): 80%
IC50 ([2]; Table 37): 2500 nM

546301 (antisense eT*eT*eG*eT*eA*dA*dT*dG*dT*d[5mC]*dT*dG*dA*d[5mC]*dA*eG*eA*eT*eT*eT) [compound 546301]
% inhibition ([1]; Table 8): 93%
percent inhibition of PKK at 0.19 μM ([2]; Table 35): 25%
percent inhibition of PKK at 0.56 μM ([2]; Table 35): 50%
percent inhibition of PKK at 1.67 μM ([2]; Table 35): 53%
percent inhibition of PKK at 5.00 μM ([2]; Table 35): 87%
IC50 ([2]; Table 35): 800 nM

548049 (eG*e[5mC]*kG*dA*dT*dA*dT*d[5mC]*dA*dT*dG*dA*dT*kT*k[5mC]*e[5mC]; antisense) [compound 548049]
% inhibition [3, 4]: 62%

547844 (antisense eG*e[5mC]*kA*d[5mC]*dT*dT*dA*dT*dT*dT*dG*dA*dT*kG*kA*e[5mC]) [compound 547844]
% inhibition [3, 5]: 13%
% inhibition [3, 6]: 76%

548598 (eG*e[5mC]*kG*d[5mC]*d[5mC]*dA*dT*d[5mC]*dT*dG*d[5mC]*d[5mC]*d[5mC]*kT*kG*eT; antisense) [compound 548598]
% inhibition [3, 7]: 50%

547883 (eA*e[5mC]*kT*dG*dG*d[5mC]*dA*dG*d[5mC]*dG*dA*dA*dT*kG*kT*eT; antisense) [compound 547883]
% inhibition [3, 5]: 99%
% inhibition [3, 6]: 0%

547981 (antisense eT*e[5mC]*kT*dT*dT*dG*dT*dG*d[5mC]*dA*dA*dG*dT*k[5mC]*kT*e[5mC]) [compound 547981]
% inhibition [3, 8]: 76%

548111 (antisense eG*eA*k[5mC]*dT*dG*d[5mC]*dA*dT*d[5mC]*dT*dG*dA*dG*k[5mC]*kT*eT) [compound 548111]
% inhibition [3, 9]: 53%

548605 (eT*eG*kG*d[5mC]*dG*dG*dG*dA*dT*dT*dG*dG*dT*kG*kG*eT; antisense) [compound 548605]
% inhibition [3, 7]: 12%

548594 (e[5mC]*e[5mC]*k[5mC]*dT*dT*d[5mC]*dT*dA*dA*d[5mC]*d[5mC]*dA*dA*kG*kG*eA; antisense) [compound 548594]
% inhibition [3, 7]: 30%

548611 (antisense eG*e[5mC]*kG*dG*dG*dA*dT*d[5mC]*dG*dG*dT*dG*dG*kT*kG*eG) [compound 548611]
% inhibition [3, 7]: 7%

548057 (e[5mC]*eA*kT*dA*dT*dT*dG*dG*dT*dT*dT*dT*dT*kG*kG*eA; antisense) [compound 548057]
% inhibition [3, 4]: 49%

548356 (antisense eT*eG*kT*dT*dG*dG*dT*d[5mC]*dA*dG*d[5mC]*dA*dT*kT*k[5mC]*eA) [compound 548356]
% inhibition [3, 10]: 63%

548240 (eA*eT*kA*d[5mC]*dT*d[5mC]*dG*d[5mC]*d[5mC]*dT*dT*dT*dG*kT*kG*eA; antisense) [compound 548240]
% inhibition ([3]; HepaRG cells, electroporation with 1,000 nM antisense oligonucleotide, approx. 24 hours, PKK mRNA by RT-PCR (RTS3454), relative to untreated control cells, Table 26 experiment): 3%

548496 (antisense eA*e[5mC]*kT*dG*dA*dA*d[5mC]*d[5mC]*d[5mC]*d[5mC]*d[5mC]*dT*dT*kA*kG*eG) [compound 548496]
% inhibition [3, 11]: 0%

548437 (antisense eT*eA*kT*dA*dT*d[5mC]*dA*d[5mC]*dT*dG*dT*dA*d[5mC]*k[5mC]*kT*eG) [compound 548437]
% inhibition ([3]; Table 30, human PKK mRNA, HepaRG cells, 1,000 nM antisense oligonucleotide): 74%

548110 (antisense eT*eG*k[5mC]*dA*dT*d[5mC]*dT*dG*dA*dG*d[5mC]*dT*dT*kT*kT*e[5mC]) [compound 548110]
% inhibition [3, 9]: 62%

547789 (antisense eG*eA*kA*dA*dT*dA*dA*dG*dT*dT*dG*d[5mC]*dT*kT*kG*e[5mC]) [compound 547789]
% inhibition [3, 12]: 20%

548175 (eA*eT*k[5mC]*dT*d[5mC]*dA*dG*dT*dT*dG*d[5mC]*dG*dA*k[5mC]*k[5mC]*eT; antisense) [compound 548175]
% inhibition [3, 13]: 0%

548181 (eG*eT*k[5mC]*dA*dT*dG*dG*dA*dG*dA*dT*d[5mC]*dT*k[5mC]*kA*eG; antisense) [compound 548181]
% inhibition [3, 13]: 55%

547931 (eG*eT*kG*dA*dT*dA*dG*dG*dT*dG*d[5mC]*dA*dG*kA*kT*eG; antisense) [compound 547931]
% inhibition [3, 8]: 58%

548166 (eG*e[5mC]*kG*dA*d[5mC]*d[5mC]*dT*d[5mC]*dG*d[5mC]*dA*dT*dT*kG*kT*e[5mC]; antisense) [compound 548166]
% inhibition [3, 13]: 0%

547972 (antisense eT*e[5mC]*kA*dA*d[5mC]*dT*d[5mC]*d[5mC]*d[5mC]*dG*dG*dG*dT*kA*kA*eA) [compound 547972]
% inhibition [3, 8]: 49%

547938 (eT*eT*kG*dT*dG*dA*d[5mC]*dT*d[5mC]*dG*dA*dT*dT*kT*kT*e[5mC]; antisense) [compound 547938]
% inhibition [3, 8]: 56%

548084 (eA*eA*kG*dG*dG*dA*d[5mC]*d[5mC]*dA*d[5mC]*d[5mC]*dT*dG*kA*kA*eT; antisense) [compound 548084]
% inhibition [3, 9]: 0%

548475 (eA*eT*k[5mC]*dG*dA*dG*dT*d[5mC]*d[5mC]*dT*dG*d[5mC]*d[5mC]*kT*k[5mC]*e[5mC]; antisense) [compound 548475]
% inhibition [3, 11]: 17%

548361 (antisense e[5mC]*eT*kT*dA*dT*d[5mC]*dA*dG*dT*d[5mC]*d[5mC]*d[5mC]*dA*kG*kT*e[5mC]) [compound 548361]
% inhibition [3, 10]: 52%

548532 (antisense eT*eA*kT*dT*dT*dA*dT*d[5mC]*d[5mC]*dG*dA*d[5mC]*d[5mC]*kT*k[5mC]*eT) [compound 548532]
% inhibition [3, 11]: 34%

548025 (eT*eG*kA*dG*d[5mC]*dT*dG*dT*d[5mC]*dA*dG*d[5mC]*dT*kT*k[5mC]*eA; antisense) [compound 548025]
% inhibition [3, 4]: 66%

548154 (eG*eT*kG*d[5mC]*dT*dG*dA*dA*dA*dG*d[5mC]*dG*dG*kG*k[5mC]*eT; antisense) [compound 548154]
% inhibition [3, 13]: 7%

547793 (antisense eA*eT*k[5mC]*d[5mC]*dA*d[5mC]*dA*dG*dG*dA*dA*dA*d[5mC]*kT*kG*eT) [compound 547793]
% inhibition [3, 12]: 16%

548643 (antisense e[5mC]*e[5mC]*kT*dA*d[5mC]*d[5mC]*dT*dA*dA*dT*dT*d[5mC]*d[5mC]*kT*k[5mC]*e[5mC]) [compound 548643]
% inhibition ([3]; PKK mRNA, HepaRG cells, 1,000 nM antisense oligonucleotide, Table 31): 0%
